Patent publication US11141494B2, “Development of neurokinin-1 receptor-binding agent delivery conjugates” (PURDUE RESEARCH FOUNDATION, priority 2014, dated 2021)

How the values were obtained:
[1] = system: NKIR-transduced xenografts (HEK 293-NKIR) versus non-transduced xenografts (HEK 293-WT); assay: PET imaging of 64Cu-labeled NK1R ligand conjugate in tumor xenograft mice (ROI activity, % ID/mL); format: in vivo, athymic nude mice; conditions: intravenous
Protocol: A NK-1 receptor-binding radionuclide delivery conjugate was prepared that contained NK1RL, a PEG2 linker, and ^64Cu-labeled chelator (radiochemical purity: 99%) with Specific Activity (SA) of 3.7 MBq/μg. Four NKIR-transduced xenografts (HEK 293-NKIR) were prepared, as well as four non-transduced xenografts (HEK 293-WT) using athymic nude mice. Doses of 140-160 uCi (˜[…]) of ligand per mouse were intravenously administered, and the models were imaged at 1, 4 and 20 hours post-injection using PET. The images were analyzed in a region of interest (ROI) around the tumor xenograft activity, and percentage injected dose per mL (% ID/mL) values were calculated from the mean activity in the ROIs. FIG. 8A is a plot showing ROI activity for the NK1R-transduced and non-transduced xenografts. […] FIG. 8B is a plot showing the ^64Cu—NK1R ligand uptake ratio between the NK1R-transduced and non-transduced xenografts in various areas at 20 hours post-injection.

[2] = in terms of human activity and metabolism; cited from earlier work

SMILES	accumulation in NK1R-transduced versus non-transduced xenografts (ROI activity) ([1]; PET at 1, 4 and 20 hours post-injection, HEK 293-NKIR and HEK 293-WT xenografts)	time post-injection at which the ratio between NK1R-transduced and non-transduced xenografts was highest ([1]; PET imaged at 1, 4 and 20 hours post-injection)	biological half-life [2]
O=C(O)CN1CCN(CC(=O)O)CCN(CC(=O)NCCOCCOCCNC(=O)CN2CCC[C@H](OCc3cc(C(F)(F)F)cc(C(F)(F)F)c3)[C@@H]2c2ccccc2)CC1 [NK1RL-PEG2-NOTA-^64Cu conjugate, metal not drawn]	specifically accumulated in NK1R-transduced xenografts, but not in non-transduced murine model xenografts	20 h	–
[99Tc] [^99mTc, technetium-99m]	–	–	1 day
